Assay results as given in ChEMBL document CHEMBL5154879, “Induction of Genes Implicated in Stress Response and Autophagy by a Novel Quinolin-8-yl-nicotinamide QN523 in Pancreatic Cancer” (J Med Chem, 2022).
The source made the active and inactive calls. The rule behind the calls is not given here.

How the values were obtained:
[1] = Upregulation of DDIT3 gene expression in human MIA PaCa-2 cells assessed as fold change in DDIT3 expression at 1 uM incubated for 24 hrs by Bru-seq analysis relative to control; type: functional
MIA PaCa-2 [2] = experiment: Induction of cell cycle arrest in human MIA PaCa-2 cells assessed as accumulation of cells in G0/G1 phase at 0.5 uM incubated for 48 hrs by RNase/propidium iodide staining based flow cytometry analysis (reference value: 70.4%); type: functional
[3] = Cytotoxicity against human HFF-1 cells assessed as inhibition of cell growth incubated for 72 hrs by MTT assay; type: toxicity, cell-based
MIA PaCa-2 [4] = experiment: Upregulation of CHOP gene expression in human MIA PaCa-2 cells incubated for 72 hrs by Western blot analysis; type: functional, cell-based; details: dose <= 600.0 µM, DDE = dose-dependent effect
MIA PaCa-2 [5] = experiment: Antitumor activity against human MIA PaCa-2 cells xenografted in NOD/SCID mouse assessed as tumor growth delay at 30 mg/kg, ip administered five times a week starting from day 44 to 51 post first dose; type: functional, organism-based; details: time 51.0 day
[6] = Downregulation of LAMA5 gene expression in human MIA PaCa-2 cells assessed as fold change in LAMA5 expression at 1 uM incubated for 24 hrs by Bru-seq analysis relative to control; type: functional
[7] = Cytotoxicity against human HPDE cells assessed as inhibition of cell growth incubated for 72 hrs by MTT assay; type: toxicity, cell-based
MIA PaCa-2 [8] = experiment: Induction of apoptosis in human MIA PaCa-2 cells assessed as early apoptotic cells at 0.1 uM incubated for 24 hrs by Annexin V-FITC/PI staining based flow cytometry analysis (reference value: 5.1%); type: functional
MIA PaCa-2 [9] = experiment: Inhibition of colony formation in human MIA PaCa-2 cells at 0.1 to 1 uM incubated for 10 to 14 days by crystal violet staining based assay; type: functional, cell-based; details: dose 0.1-1 µM, time 10-14 day
MIA PaCa-2 [10] = experiment: Induction of apoptosis in human MIA PaCa-2 cells assessed as live cells at 0.5 uM incubated for 24 hrs by Annexin V-FITC/PI staining based flow cytometry analysis (reference value: 90.2%); type: functional
MIA PaCa-2 [11] = experiment: Induction of cell cycle arrest in human MIA PaCa-2 cells assessed as accumulation of cells in G2/M phase at 0.5 uM incubated for 24 hrs by RNase/propidium iodide staining based flow cytometry analysis (reference value: 8.11%); type: functional
MIA PaCa-2 [12] = experiment: Induction of apoptosis in human MIA PaCa-2 cells assessed as viable cells at 0.1 uM incubated for 24 hrs by Annexin V-FITC/PI staining based flow cytometry analysis (reference value: 90.2%); type: functional; details: read-out: Activity
MIA PaCa-2 [13] = experiment: Induction of apoptosis in human MIA PaCa-2 cells assessed as late apoptotic cells at 0.1 uM incubated for 24 hrs by Annexin V-FITC/PI staining based flow cytometry analysis (reference value: 2.04%); type: functional
MIA PaCa-2 [14] = experiment: Induction of apoptosis in human MIA PaCa-2 cells assessed as necrotic cells at 0.5 uM incubated for 24 hrs by Annexin V-FITC/PI staining based flow cytometry analysis (reference value: 2.7%); type: functional
[15] = Downregulation of INCENP gene expression in human MIA PaCa-2 cells assessed as fold change in INCENP expression at 1 uM incubated for 24 hrs by Bru-seq analysis relative to control; type: functional
BXPC-3 = experiment: Inhibition of colony formation in human BXPC-3 cells at 1 uM incubated for 10 to 14 days by crystal violet staining based assay; type: functional, cell-based; details: time 10-14 day
MIA PaCa-2 [16] = experiment: Induction of cell cycle arrest in human MIA PaCa-2 cells assessed as accumulation of cells in G0/G1 phase at 0.1 uM incubated for 24 hrs by RNase/propidium iodide staining based flow cytometry analysis (reference value: 64.3%); type: functional
[17] = Upregulation of FAM129A gene expression in human MIA PaCa-2 cells assessed as fold change in FAM129A expression at 1 uM incubated for 24 hrs by Bru-seq analysis relative to control; type: functional
MIA PaCa-2 [18] = experiment: Additive autophagy activity in human MIA PaCa-2 cells assessed as inhibition of colony formation at 0.001 to 0.1 uM incubated for 7 days in presence of autophagy inhibitor chloroquine by crystal violet staining based assay; type: functional, cell-based; details: dose 0.001-0.1 µM, time 7.0 day
HepG2 = experiment: Antiproliferative activity against human HepG2 cells assessed as inhibition of cell growth incubated for 72 hrs by MTT assay; type: functional, cell-based; details: HepG2, 72 h
[19] = Downregulation of ANKDDIA gene expression in human MIA PaCa-2 cells assessed as fold change in ANKDDIA expression at 1 uM incubated for 24 hrs by Bru-seq analysis relative to control; type: functional
MIA PaCa-2 [20] = experiment: Induction of apoptosis in human MIA PaCa-2 cells assessed as early apoptotic cells at 0.5 uM incubated for 24 hrs by Annexin V-FITC/PI staining based flow cytometry analysis (reference value: 5.1%); type: functional
MIA PaCa-2 [21] = experiment: Upregulation of apoptotic gene expression in human MIA PaCa-2 cells by gene set enrichment analysis; type: functional, cell-based
[22] = Upregulation of CXCL8 gene expression in human MIA PaCa-2 cells assessed as fold change in CXCL8 expression at 1 uM incubated for 24 hrs by Bru-seq analysis relative to control; type: functional
MIA PaCa-2 [23] = experiment: Antitumour activity against of human MIA PaCa-2 xenografted in NOD/SCID mouse assessed as reduction in Ki67 expression in tumor by immunohistochemical assay; type: functional
[24] = Downregulation of PLEKHG3 gene expression in human MIA PaCa-2 cells assessed as fold change in PLEKHG3 expression at 1 uM incubated for 24 hrs by Bru-seq analysis relative to control; type: functional
MIA PaCa-2 [25] = experiment: Induction of autophagy in human MIA PaCa-2 cells assessed as accumulation of WIP11 marker gene expression at upto 2 uM incubated for 72 hrs by Western blot analysis; type: functional, cell-based
[26] = Downregulation of GTSEI gene expression in human MIA PaCa-2 cells assessed as fold change in GTSEI expression at 1 uM incubated for 24 hrs by Bru-seq analysis relative to control; type: functional
[27] = Toxicity in NOD/SCID mouse xenografted with human MIA PaCa-2 cells assessed as lethargy at 10 to 20 mg/kg, ip administered five times a week for 44 days; type: organism-based; details: in vivo, 1056 h, dose 10-20 mg/kg, time 44 day
MIA PaCa-2 [28] = experiment: Upregulation of HSPA5 gene expression in human MIA PaCa-2 cells incubated for 72 hrs by Western blot analysis; type: functional, cell-based; details: DDE = dose-dependent effect
[29] = Downregulation of NEURLIB gene expression in human MIA PaCa-2 cells assessed as fold change in NEURLIB expression at 1 uM incubated for 24 hrs by Bru-seq analysis relative to control; type: functional
[30] = Upregulation of UPP1 gene expression in human MIA PaCa-2 cells assessed as fold change in UPP1 expression at 1 uM incubated for 24 hrs by Bru-seq analysis relative to control; type: functional
[31] = Downregulation of ESPL1 gene expression in human MIA PaCa-2 cells assessed as fold change in ESPL1 expression at 1 uM incubated for 24 hrs by Bru-seq analysis relative to control; type: functional

## O=C(Nc1cccc2cccnc12)c1cnccn1
[1]
  fold change (FC): 11
MIA PaCa-2 [2]
  Activity: 31.2%
[3]
  IC50 at 72 h: > 30000 nM
MIA PaCa-2 [4]
  Activity: Dde
MIA PaCa-2 [5]
  Activity: Active
[6]
  fold change (FC): 0.42
[7]
  IC50 at 72 h: 550 nM
MIA PaCa-2 [8]
  Activity: 10.7%
MIA PaCa-2 [9]
  inhibition: Active
MIA PaCa-2 [10]
  Activity: 86.2%
MIA PaCa-2 [11]
  Activity: 10.5%
MIA PaCa-2 [12]
  viability at 0.1 µM: 84.9%
MIA PaCa-2 [13]
  Activity: 2.3%
MIA PaCa-2 [14]
  Activity: 1.4%
[15]
  fold change (FC): 0.46
BXPC-3
  inhibition: Active
MIA PaCa-2 [16]
  Activity: 52%
[17]
  fold change (FC): 16.8
MIA PaCa-2 [18]
  Activity: Active
HepG2
  IC50: 500 nM
[19]
  fold change (FC): 0.45
MIA PaCa-2 [20]
  Activity: 10.1%
MIA PaCa-2 [21]
  Activity: Active
[22]
  fold change (FC): 6
MIA PaCa-2 [23]
  Activity: Active
[24]
  fold change (FC): 0.39
MIA PaCa-2 [25]
  Activity: Active
[26]
  fold change (FC): 0.46
[27]
  Activity: Non-Toxic
MIA PaCa-2 [28]
  Activity: Dde
[29]
  fold change (FC): 0.44
[30]
  fold change (FC): 18.2
[31]
  fold change (FC): 0.4
